Source: patent publication US12297244B2, “Systems and methods for inhibiting γ-secretase production of amyloid-β peptides” (Rensselaer Polytechnic Institute, priority 2020, dated 2025)
Like-named read-outs stand apart in the source and are kept apart here.

What was measured:
[1] = target: T1, γ-secretase in the HeLa membrane (Homo sapiens, UniProt P05067); assay: AlphaLISA γ-secretase assay with biotinylated Sb4 (APP sequence) substrate; format: biochemical; parameters: fused on or other part: Biotin label on Sb4; details: from lower IC50 for Aβ42 than Aβ40
Source text: (§1) Referring now to FIG. 1, and without wishing to be bound by theory, γ-secretase cleaves within the transmembrane domain of the amyloid precursor protein (APPTM) to release Aβ, which aggregates to form neurotoxic oligomers and fibrils. […] Formula III decreased the production of Aβ40 and Aβ42 by γ-secretase in a dose dependent manner (FIG. 2).

[2] = target: T1, γ-secretase in the HeLa membrane; assay: as above; format: biochemical; parameters: other: γ-secretase in HeLa membrane, Sb4 substrate; fused on or other part: Biotin label on Sb4; details: γ-secretase in HeLa membrane, Sb4 substrate
Source text: as §1

T1 sequence (P05067 whole entry, the tested form may be a part): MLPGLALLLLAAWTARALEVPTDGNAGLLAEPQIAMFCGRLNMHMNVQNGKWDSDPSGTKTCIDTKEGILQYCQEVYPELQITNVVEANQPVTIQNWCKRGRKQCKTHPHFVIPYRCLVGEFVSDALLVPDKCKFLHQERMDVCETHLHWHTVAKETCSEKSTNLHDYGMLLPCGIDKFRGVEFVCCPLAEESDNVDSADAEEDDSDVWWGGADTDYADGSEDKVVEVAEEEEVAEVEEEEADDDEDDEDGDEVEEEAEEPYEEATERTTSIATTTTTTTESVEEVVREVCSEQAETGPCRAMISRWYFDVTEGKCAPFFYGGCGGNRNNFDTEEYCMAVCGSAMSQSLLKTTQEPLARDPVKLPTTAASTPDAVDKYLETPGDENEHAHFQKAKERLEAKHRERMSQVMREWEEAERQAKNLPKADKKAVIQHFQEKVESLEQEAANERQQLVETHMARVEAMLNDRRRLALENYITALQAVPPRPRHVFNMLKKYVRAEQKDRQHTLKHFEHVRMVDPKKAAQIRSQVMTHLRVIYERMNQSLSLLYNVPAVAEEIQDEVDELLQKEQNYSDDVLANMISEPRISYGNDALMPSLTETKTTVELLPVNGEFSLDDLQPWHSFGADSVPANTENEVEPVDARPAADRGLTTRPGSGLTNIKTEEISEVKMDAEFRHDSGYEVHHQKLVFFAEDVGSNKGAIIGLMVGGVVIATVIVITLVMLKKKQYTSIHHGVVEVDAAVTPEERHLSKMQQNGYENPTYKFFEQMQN

IC50 ([2]; read-out: IC50 for the inhibition of Aβ40 production): 3900 nM
IC50 ([2]; read-out: IC50 for the inhibition of Aβ42 production): 1900 nM
SMILES: O=C(C=COc1ccc2ccccc2c1)c1ccc(F)cc1 [Formula III]
selectivity in inhibiting Aβ42 production over Aβ40 [1]: selectivity in inhibiting Aβ42 production over Aβ40
